Experimental data as given in patent publication US9850283B2, “Macrocyclic inhibitors of the PD-1/PD-L1 and CD80(B7-1)/PD-L1 protein/protein interactions” (BRISTOL-MYERS SQUIBB COMPANY, priority 2013, dated 2017).
Like-named read-outs stand apart in the source and are kept apart here. Starred links: 1 amine or outer side, 2 acyl side, 3 side chain; linkers in the order of their positions; H or OH if unused. Positions of bridges follow the written chain, without caps; N, C: chain ends. Non-standard residues stand in square brackets, D forms with d. Residues, ends and D or L forms follow the SMILES beside them. ξ: configuration not given here. Pro(trans-4-Ph) = O=C(O)[C@@H]1C[C@@H](c2ccccc2)CN1; X3 = O=C([C@@H]1C[C@@H](Cc2ccc(F)cc2)CN1[*:1])[*:2]; Phe(4-CF3) = N[C@@H](Cc1ccc(C(F)(F)F)cc1)C(=O)O; Bip = N[C@@H](Cc1ccc(-c2ccccc2)cc1)C(=O)O; Pro(4R-NH2) = N[C@H]1CN[C@H](C(=O)O)C1; Bta = N[C@@H](Cc1csc2ccccc12)C(=O)O; Hyp = O=C(O)[C@@H]1C[C@@H](O)CN1; NMeF = CN[C@@H](Cc1ccccc1)C(=O)O; AllylGly = C=CC[C@H](N)C(=O)O; NMeNle = CCCC[C@H](NC)C(=O)O; NMeA = CN[C@@H](C)C(=O)O; Orn = NCCC[C@H](N)C(=O)O; Dab = NCC[C@H](N)C(=O)O; Dap = NC[C@H](N)C(=O)O; ξC = NC(CS)C(=O)O; Sar = CNCC(=O)O

How the values were obtained:
[1] = molecular target: T1, LK35.2-hPD-L1 cells / PE-labeled PD-1-Ig (Homo sapiens, UniProt Q9NZQ7); assay: LK35.2-hPD-L1 cell binding high-content screening assay; format: cell-based; settings: cluster symbol, read-out: CBA IC50 cluster
T1 construct: expressed in transfected cells; host or cells: LK35.2 mouse B cell line
Method in brief: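 Binding of PE-conjugated human PD-1-Ig (1 nM final) to human PD-L1 stably expressed on a mouse B-cell line (LK35.2) was measured by high-content imaging after washes. Compound and labeled PD-1-Ig were co-incubated 1 h at 37 °C with cells in RPMI/10% FCS.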

Human PD-L1/PD-1 = molecular target: T2, Human PD-L1/PD-1 (Homo sapiens, UniProt Q9NZQ7); assay: HTRF PD-1-Ig/PD-L1-His binding assay (human PD-L1); settings: cluster symbol; read-out: HTRF IC50 cluster
T2 construct: made in house; host or cells: HEK293T
Method in brief: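 Steps: truncated PD-1-Ig and PD-L1-His fusions are incubated in dPBS containing 0.1% (w/v) BSA and 0.05% (v/v) Tween-20. Detection antibodies are then added (Eu cryptate anti-Ig at 1 nM final, APC anti-His at 20 nM final), and time-resolved FRET is measured.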

[2] = cell binding assay, cell line not given
[3] = cell line of CBA not given (LK35.2-hPD-L1 or 293T-hPD-L1)

T1 sequence (Q9NZQ7 19-290): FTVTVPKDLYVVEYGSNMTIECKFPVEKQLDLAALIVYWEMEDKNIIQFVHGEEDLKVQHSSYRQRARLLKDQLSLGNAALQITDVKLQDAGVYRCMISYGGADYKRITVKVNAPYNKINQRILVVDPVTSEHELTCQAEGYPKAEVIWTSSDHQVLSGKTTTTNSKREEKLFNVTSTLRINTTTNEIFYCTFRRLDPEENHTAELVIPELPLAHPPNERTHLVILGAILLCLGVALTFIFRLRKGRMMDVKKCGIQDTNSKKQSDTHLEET
T2 sequence (Q9NZQ7 with tags, fused parts or gaps): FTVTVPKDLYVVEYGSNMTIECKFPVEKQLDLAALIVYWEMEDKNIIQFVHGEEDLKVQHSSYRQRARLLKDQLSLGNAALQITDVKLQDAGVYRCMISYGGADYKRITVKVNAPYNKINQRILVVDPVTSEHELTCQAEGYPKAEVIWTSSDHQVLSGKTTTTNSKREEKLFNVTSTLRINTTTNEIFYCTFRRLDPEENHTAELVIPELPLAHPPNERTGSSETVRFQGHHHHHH

| IC50 [1, 2] | IC50 (Human PD-L1/PD-1) | IC50 [1, 3] | SMILES |
| --- | --- | --- | --- |
| 0.158 to 4.71 nM | 0.385 to 6.74 nM | – | CCCC[C@H]1C(=O)N(C)[C@@H](CCCC)C(=O)N[C@@H](CCCN)C(=O)N[C@H](C(=O)NCC(N)=O)CSCC(=O)N[C@@H](Cc2ccc(O)cc2)C(=O)N(C)[C@@H](C)C(=O)N[C@@H](CC(N)=O)C(=O)N2CCC[C@H]2C(=O)N[C@@H](CN)C(=O)N[C@@H](CC(C)C)C(=O)N2C[C@H](c3ccccc3)C[C@H]2C(=O)N[C@@H](Cc2c[nH]c3ccccc23)C(=O)N[C@@H](CO)C(=O)N[C@@H](Cc2c[nH]c3ccccc23)C(=O)N1C [Example 14001] ({CH2CO}-Y[NMeA]NP[Dap]L[Pro(trans-4-Ph)]WSW[NMeNle][NMeNle][Orn]CG-NH2; thioether N-14) |
| – | > 30.5 nM | > 74.3 nM | CCCC[C@H]1C(=O)N(C)CC(=O)N[C@@H](CC(=O)O)C(=O)N[C@@H](C(C)C)C(=O)N(C)[C@@H](Cc2ccccc2)C(=O)N[C@@H](Cc2ccc(O)cc2)C(=O)N(C)CC(=O)N[C@@H](Cc2c[nH]c3ccccc23)C(=O)N[C@@H](Cc2ccc(O)cc2)C(=O)N[C@@H](CC(C)C)C(=O)N[C@H](C(=O)NCC(N)=O)CSCC(=O)N[C@@H](Cc2ccc(OC)cc2)C(=O)N(C)[C@@H](Cc2ccccc2)C(=O)N1C [Example 3089] ({CH2CO}-Y(Me)[NMeF][NMeNle][Sar]DV[NMeF]Y[Sar]WYLCG-NH2; thioether N-13) |
| 0.158 to 4.71 nM | 0.385 to 6.74 nM | – | C=CC[C@@H]1NC(=O)[C@H](Cc2c[nH]c3ccccc23)NC(=O)[C@@H]2C[C@@H](O)CN2C(=O)[C@H](CC(C)C)NC(=O)[C@H](Cc2cnc[nH]2)NC(=O)[C@@H]2CCCN2C(=O)[C@H](CC(N)=O)NC(=O)[C@H](C)N(C)C(=O)[C@H](Cc2ccc(O)cc2)NC(=O)CSC[C@@H](C(=O)NCC(N)=O)NC(=O)[C@H](CC=C)NC(=O)[C@H](CCCC)N(C)C(=O)[C@H](CCCC)N(C)C(=O)[C@H](Cc2c[nH]c3ccccc23)NC1=O [Example 7019] ({CH2CO}-Y[NMeA]NPHL[Hyp]W[AllylGly]W[NMeNle][NMeNle][AllylGly]CG-NH2; thioether N-14) |
| > 74.3 nM | > 30.5 nM | – | CCCC[C@H]1C(=O)N(C)CC(=O)N[C@@H](CC(=O)O)C(=O)N[C@@H](C(C)C)C(=O)N(C)[C@@H](Cc2ccccc2)C(=O)N[C@@H](Cc2ccc(O)cc2)C(=O)N(C)CC(=O)N[C@@H](Cc2ccc(-c3ccccc3)cc2)C(=O)N[C@@H](Cc2ccc(O)cc2)C(=O)N[C@@H](CC(C)C)C(=O)N[C@H](C(=O)NCC(N)=O)CSCC(=O)N[C@@H](Cc2ccccc2)C(=O)N(C)[C@@H](Cc2ccccc2)C(=O)N1C [Example 3545] ({CH2CO}-F[NMeF][NMeNle][Sar]DV[NMeF]Y[Sar][Bip]YLCG-NH2; thioether N-13) |
| – | 6.76 to 30.3 nM | 4.78 to 72.9 nM | CCCC[C@H]1C(=O)N2CCC[C@@H]2C(=O)N2C[C@H](N)C[C@H]2C(=O)N[C@@H](C(C)C)C(=O)N(C)[C@@H](Cc2ccccc2)C(=O)N[C@@H](Cc2ccc(O)cc2)C(=O)N(C)CC(=O)N[C@@H](Cc2c[nH]c3ccccc23)C(=O)N[C@@H](Cc2ccc(O)cc2)C(=O)N[C@@H](CC(C)C)C(=O)N[C@H](C(=O)NCC(N)=O)CSCC(=O)N[C@@H](Cc2ccccc2)C(=O)N(C)[C@@H](Cc2ccccc2)C(=O)N1C [Example 3175] ({CH2CO}-F[NMeF][NMeNle][dP][Pro(4R-NH2)]V[NMeF]Y[Sar]WYLCG-NH2; thioether N-13) |
| – | 6.76 to 30.3 nM | 4.78 to 72.9 nM | CCCC[C@H]1C(=O)N(C)[C@@H](CCCC)C(=O)N[C@@H](C)C(=O)N[C@H](C(=O)NCC(N)=O)CSCC(=O)N[C@@H](Cc2ccc(O)cc2)C(=O)N(C)[C@@H](C)C(=O)N[C@@H](CCC(=O)O)C(=O)N2CCC[C@H]2C(=O)N[C@@H](Cc2cnc[nH]2)C(=O)N[C@@H](CC(C)C)C(=O)N2CCC[C@H]2C(=O)N[C@@H](Cc2c[nH]c3ccccc23)C(=O)N[C@@H](CO)C(=O)N[C@@H](Cc2c[nH]c3ccccc23)C(=O)N1C [Example 1164] ({CH2CO}-Y[NMeA]EPHLPWSW[NMeNle][NMeNle]ACG-NH2; thioether N-14) |
| – | > 30.5 nM | > 74.3 nM | CCCC[C@H]1C(=O)N(C)CC(=O)N[C@@H](CC(=O)O)C(=O)N[C@@H](C(C)C)C(=O)N(C)[C@@H](Cc2ccccc2)C(=O)N[C@@H](Cc2ccc(O)cc2)C(=O)N(C)CC(=O)N[C@@H](Cc2c[nH]c3ccccc23)C(=O)N[C@@H](Cc2ccc(O)cc2)C(=O)N[C@@H](CC(C)C)C(=O)N[C@H](C(=O)NCC(N)=O)CSCC(=O)N(C)[C@@H](Cc2ccccc2)C(=O)N1C [Example 3052] (HELM PEPTIDE1{[O=C(C[*:3])[*:2]].[meF].[CCCC[C@@H](C(=O)[*:2])N(C)[*:1]].[Sar].D.V.[meF].Y.[Sar].W.Y.L.C.G.[am]}$PEPTIDE1,PEPTIDE1,1:R3-13:R3$$$V2.0) |
| – | 6.76 to 30.3 nM | 4.78 to 72.9 nM | CCCC[C@H]1C(=O)N(C)CC(=O)N[C@@H](CC(=O)O)C(=O)N[C@@H](C(C)C)C(=O)N(C)[C@@H](Cc2ccccc2)C(=O)N[C@@H](Cc2ccc(O)cc2)C(=O)N(C)CC(=O)N[C@@H](Cc2c[nH]c3ccccc23)C(=O)N[C@@H](Cc2ccc(O)cc2)C(=O)N[C@@H](CN)C(=O)N[C@H](C(=O)NCC(N)=O)CSCC(=O)N[C@@H](Cc2ccccc2)C(=O)N(C)[C@@H](Cc2ccccc2)C(=O)N1C [Example 3161] ({CH2CO}-F[NMeF][NMeNle][Sar]DV[NMeF]Y[Sar]WY[Dap]CG-NH2; thioether N-13) |

The remaining lines, values behind:

| SMILES | IC50 [1, 2] | IC50 (Human PD-L1/PD-1) | IC50 [1, 3] |
| --- | --- | --- | --- |
| CCCC[C@H]1C(=O)N(C)[C@@H](CCCC)C(=O)N[C@@H](CCCNC(=N)N)C(=O)N[C@H](C(=O)NCC(N)=O)CSCC(=O)N[C@@H](Cc2ccc(C(F)(F)F)cc2)C(=O)N(C)[C@@H](C)C(=O)N[C@@H](CC(N)=O)C(=O)N2CCC[C@H]2C(=O)N[C@@H](CN)C(=O)N[C@@H](CC(C)C)C(=O)N2C[C@H](O)C[C@H]2C(=O)N[C@@H](Cc2c[nH]c3ccccc23)C(=O)N[C@@H](CO)C(=O)N[C@@H](Cc2c[nH]c3ccccc23)C(=O)N1C [Example 7030] ({CH2CO}-[Phe(4-CF3)][NMeA]NP[Dap]L[Hyp]WSW[NMeNle][NMeNle]RCG-NH2; thioether N-14) | 4.78 to 72.9 nM | 0.385 to 6.74 nM | – |
| CCCC[C@H]1C(=O)N(C)[C@@H](CCCC)C(=O)N[C@@H](CCC(=O)O)C(=O)N[C@H](C(=O)NCC(N)=O)CSCC(=O)N[C@@H](Cc2ccc(O)cc2)C(=O)N(C)[C@@H](C)C(=O)N[C@@H](CC(=O)O)C(=O)N2CCC[C@H]2C(=O)N[C@@H](Cc2c[nH]cn2)C(=O)N[C@@H](CCCCN)C(=O)N2C[C@H](Cc3ccc(F)cc3)C[C@H]2C(=O)N[C@@H](Cc2c[nH]c3ccccc23)C(=O)N[C@@H](CCCCN)C(=O)N[C@@H](Cc2c[nH]c3ccccc23)C(=O)N1C [Example 13014] ({CH2CO}-Y[NMeA]DPHK[X3]WKW[NMeNle][NMeNle]ECG-NH2; thioether N-14) | > 74.3 nM | 0.385 to 6.74 nM | – |
| CCCC[C@H]1C(=O)N(C)[C@@H](COCC)C(=O)N[C@@H](CCCNC(=N)N)C(=O)NC(C(=O)NCC(N)=O)CSCC(=O)N[C@@H](Cc2ccc(O)cc2)C(=O)N(C)[C@@H](C)C(=O)N[C@@H](CC(N)=O)C(=O)N2CCC[C@H]2C(=O)N[C@@H](Cc2cnc[nH]2)C(=O)N[C@@H](CC(C)C)C(=O)N2C[C@H](O)C[C@H]2C(=O)N[C@@H](Cc2c[nH]c3ccccc23)C(=O)N[C@@H](CO)C(=O)N[C@@H](Cc2c[nH]c3ccccc23)C(=O)N1C (stereo partly shown) [Example 9043] | 0.158 to 4.71 nM | 0.385 to 6.74 nM | – |
| CCCC[C@H]1C(=O)N(C)[C@@H](CCCC)C(=O)N[C@@H](CCCN)C(=O)N[C@H](C(=O)NCC(N)=O)CSCC(=O)N[C@@H](Cc2ccc(O)cc2)C(=O)N(C)[C@@H](C)C(=O)N[C@@H](CC(N)=O)C(=O)N2CCC[C@H]2C(=O)N[C@@H](CN)C(=O)N[C@@H](CCC(N)=O)C(=O)N2C[C@H](O)C[C@H]2C(=O)N[C@@H](Cc2c[nH]c3ccccc23)C(=O)N[C@@H](CCN)C(=O)N[C@@H](Cc2csc3ccccc23)C(=O)N1C [Example 1195] ({CH2CO}-Y[NMeA]NP[Dap]Q[Hyp]W[Dab][Bta][NMeNle][NMeNle][Orn]CG-NH2; thioether N-14) | – | 0.385 to 6.74 nM | 0.158 to 4.71 nM |
| CCCC[C@H]1C(=O)N(C)[C@@H](C)C(=O)N[C@@H](CCCNC(=N)N)C(=O)NC(C(=O)NCC(N)=O)CSCC(=O)N[C@@H](Cc2ccc(O)cc2)C(=O)N(C)[C@@H](C)C(=O)N[C@@H](CC(N)=O)C(=O)N2CCC[C@H]2C(=O)N[C@@H](Cc2cnc[nH]2)C(=O)N[C@@H](CC(C)C)C(=O)N2CCC[C@H]2C(=O)N[C@@H](Cc2c[nH]c3ccccc23)C(=O)N[C@@H](CO)C(=O)N[C@@H](Cc2csc3ccccc23)C(=O)N1C (stereo partly shown) [Example 9053] ({CH2CO}-Y[NMeA]NPHLPWS[Bta][NMeNle][NMeA]R[ξC]G-NH2; thioether N-14) | 4.78 to 72.9 nM | 6.76 to 30.3 nM | – |
| CCCC[C@H]1C(=O)N(C)[C@@H](CCCC)C(=O)N[C@@H](CCCNC(=N)N)C(=O)N[C@H](C(=O)NCC(=O)N[C@@H](C)C(N)=O)CSCC(=O)N[C@@H](Cc2ccc(O)cc2)C(=O)N(C)[C@@H](C)C(=O)N[C@@H](CC(N)=O)C(=O)N2CCC[C@H]2C(=O)N[C@@H](Cc2cnc[nH]2)C(=O)N[C@@H](CC(C)C)C(=O)N2C[C@H](O)C[C@H]2C(=O)N[C@@H](Cc2c[nH]c3ccccc23)C(=O)N[C@@H](CO)C(=O)N[C@@H](Cc2c[nH]c3ccccc23)C(=O)N1C [Example 6019] ({CH2CO}-Y[NMeA]NPHL[Hyp]WSW[NMeNle][NMeNle]RCGA-NH2; thioether N-14) | 0.158 to 4.71 nM | 0.385 to 6.74 nM | – |
